Data from patent US11471502B2, “Neuroprotective peptide” (UNIVERSITY COLLEGE CARDIFF C[…], priority 2017, dated 2022).
Entries after “also recorded” stand apart in the source; their conditions may differ.

Tested on: ERK1/MAPK3
Experiment: Single in vivo administration in ERK1 KO versus ERK1 WT mice
Set-up: species or system mouse
Procedure: a) RB5 peptide selectively promoted activation of ERK2. Acute striatal slices either pre-treated with Scramble (SCR) or RB5 peptide (50 μM) and then stimulated 10 minutes with glutamate (GLU) (100 μM) or vehicle were analysed in Western blot (left panel) and probed with anti phospho ERK antibodies (p44^ERK1 and p42^ERK2) and anti ERK1/2 antibody. GAPDH was used as loading control. […] No changes were detected in the total ERK1 and ERK2 levels. GAPDH was used as loading control. […] Mice injected with a single dose of CPP-SCR or CPP-RB5 peptides (20 mg/kg, i.p.) were rapidly perfused 1 h later and brains were dissected and further analysed for IHC and immunofluorescence. Representative photomicrographs of pERK1/2, pMSK, pAch3, pELK1 and c-Fos expression in the striatum. […] Two-way ANOVA Bonferroni post hoc comparison: one black star, p<0.05, two black stars, p<0.01, one white star, p<0.001. p) Dose response curve of RB5 peptide for ERK activation. 200 μm thick striatal slices were freshly prepared from 2-month old mice and transferred into a perfusion chamber for 1 h at 32° C. Slices were pre-treated with different doses of RB5 or scrambled control. After 1 h, slices for each dose was fixed in PFA 4% for 15 min. 18 μm cryo-sections were processed for immunohistochemistry with anti-phospho p44/p42 MAP kinase. Neuronal quantification was performed with ImageJ software by counting the number of phospho-ERK positive cells in each slice. The level of activation is expressed on the Y-axis as arbitrary units (AU). Doses are reported in a logarithmic scale (Log 10) on the X-axis. The EC50 was calculated using GraphPad Prism software.
ERK1 male KO and littermate controls, were generated as described previously and were used for ex vivo analysis.
Mice pre-treated with a single dose of CPP-RB5 or CPP-SCR (20 mg/kg) were perfused 1 h later and brain slices were processed for nuclear and cytoplasmic markers.

CSCC[C@H](NC(=O)[C@H](CCC(=O)O)NC(=O)[C@@H](NC(=O)[C@H](CCC(=O)O)NC(=O)CNC(=O)[C@@H]1CCCN1C(=O)[C@@H](NC(=O)CNC(=O)[C@@H]1CCCN1C(=O)CNC(=O)[C@@H](NC(=O)CNC(=O)[C@H](CCC(=O)O)NC(=O)[C@@H](NC(=O)[C@H](CCCNC(=N)N)NC(=O)[C@H](CCCNC(=N)N)NC(=O)[C@@H]1CCCN1C(=O)[C@H](CCC(=O)O)NC(=O)CNC(=O)CNC(=O)CNC(=O)CNC(=O)CNC(=O)[C@H](CCC(N)=O)NC(=O)[C@@H]1CCCN1C(=O)[C@@H]1CCCN1C(=O)[C@H](CCCNC(=N)N)NC(=O)[C@H](CCCNC(=N)N)NC(=O)[C@H](CCCNC(=N)N)NC(=O)[C@H](CCC(N)=O)NC(=O)[C@H](CCCNC(=N)N)NC(=O)[C@H](CCCNC(=N)N)NC(=O)[C@H](CCCCN)NC(=O)[C@H](CCCCN)NC(=O)[C@H](CCCNC(=N)N)NC(=O)CNC(C)=O)[C@@H](C)O)C(C)C)C(C)C)C(C)C)C(=O)N[C@H](C(=O)N[C@@H](CCCCN)C(=O)NCC(=O)N[C@@H](CCC(N)=O)C(=O)N1CCC[C@H]1C(=O)N[C@@H](Cc1ccccc1)C(=O)N[C@@H](CC(=O)O)C(=O)N[C@@H](C(=O)O)C(C)C)C(C)C [RB5]
pERK, pAcH3 (and pS6) (ERK1 KO mice, single administration): did not alter; also recorded: did not reach the statistical significance | pERK and pAcH3 (ERK1 WT mice, single administration): significant activation | phosphorylation of S6 (ERK1 WT vs ERK1 KO mice): comparable in both genotypes
